# Experiments:
# [1] = tested on: Tyrosine-protein kinase ABL1 (Homo sapiens), P00519 [F317L]; conditions: Compound concentration 1000.0 nM
# [2] = target: Cyclin-dependent kinase 4 (Homo sapiens) (UniProt P11802); conditions: Compound concentration 1000.0 nM
# [3] = target: Casein kinase I isoform epsilon (Homo sapiens) (UniProt P49674); conditions: Compound concentration 1000.0 nM
# [4] = target: Mitogen-activated protein kinase kinase kinase 15 (Homo sapiens) (UniProt Q6ZN16); conditions: Compound concentration 1000.0 nM
# [5] = target: Mitogen-activated protein kinase kinase kinase 9 (Homo sapiens) (UniProt P80192); conditions: Compound concentration 1000.0 nM
# [6] = target: Cyclin-dependent kinase 17 (Homo sapiens) (UniProt Q00537); conditions: Compound concentration 1000.0 nM
# [7] = target: Phosphatidylinositol 4,5-bisphosphate 3-kinase catalytic subunit gamma isoform (Homo sapiens) (UniProt P48736); conditions: Compound concentration 1000.0 nM
# [8] = target: Serine/threonine-protein kinase N1 (Homo sapiens) (UniProt Q16512); conditions: Compound concentration 1000.0 nM
# [9] = target: Serine/threonine-protein kinase D2 (Homo sapiens) (UniProt Q9BZL6); conditions: Compound concentration 1000.0 nM
# [10] = target: Serine/threonine-protein kinase 16 (Homo sapiens) (UniProt O75716); conditions: Compound concentration 1000.0 nM
# [11] = target: Serine/threonine-protein kinase TAO1 (Homo sapiens) (UniProt Q7L7X3); conditions: Compound concentration 1000.0 nM
# [12] = target: Calcium/calmodulin-dependent protein kinase type 1B (Homo sapiens, UniProt Q6P2M8); experiment: Inhibition of PNCK at compound concentration of 10.0 uM using the ScanMax (DiscoverX)
# [13] = target: Translocator protein (Rattus norvegicus) (UniProt P16257); experiment: BZD (peripheral) Ligand binding assay; conditions: Compound concentration 10.0 uM
# [14] = target: Cannabinoid receptor 2 (Homo sapiens) (UniProt P34972); experiment: CB2 (h) (peripheral) Ligand binding assay; conditions: Compound concentration 10.0 uM
# [15] = target: D(3) dopamine receptor (Homo sapiens) (UniProt P35462); experiment: D3 (h) Ligand binding assay; conditions: Compound concentration 10.0 uM
# [16] = target: T1, D(4) dopamine receptor (Homo sapiens) (UniProt P21917); experiment: D4.4 (h) Ligand binding assay; conditions: Compound concentration 10.0 uM
# T1 sequence (whole entry): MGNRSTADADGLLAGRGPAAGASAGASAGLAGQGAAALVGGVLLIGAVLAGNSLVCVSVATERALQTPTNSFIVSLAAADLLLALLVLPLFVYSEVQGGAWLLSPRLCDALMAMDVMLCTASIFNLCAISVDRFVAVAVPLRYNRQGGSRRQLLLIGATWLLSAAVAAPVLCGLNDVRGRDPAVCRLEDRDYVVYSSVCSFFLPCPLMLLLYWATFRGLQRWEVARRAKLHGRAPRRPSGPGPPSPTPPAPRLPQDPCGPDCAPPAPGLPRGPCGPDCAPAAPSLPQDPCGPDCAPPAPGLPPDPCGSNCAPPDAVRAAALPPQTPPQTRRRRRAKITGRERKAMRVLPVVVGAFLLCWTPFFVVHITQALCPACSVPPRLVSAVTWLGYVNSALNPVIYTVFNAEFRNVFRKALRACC
# [17] = target: D(1B) dopamine receptor (Homo sapiens) (UniProt P21918); experiment: D5 (h) Ligand binding assay; conditions: Compound concentration 10.0 uM
# [18] = target: Muscarinic acetylcholine receptor M3 (Homo sapiens) (UniProt P20309); experiment: M3 (h) Ligand binding assay; conditions: Compound concentration 10.0 uM
# [19] = target: Neurotensin receptor type 1 (Homo sapiens) (UniProt P30989); experiment: NT1 (h) Ligand binding assay; conditions: Compound concentration 10.0 uM
# [20] = target: Delta-type opioid receptor (Homo sapiens) (UniProt P41143); experiment: Delta (h) Ligand binding assay; conditions: Compound concentration 10.0 uM
# [21] = target: 5-hydroxytryptamine receptor 2A (Homo sapiens) (UniProt P28223); experiment: 5-HT2A (h) Ligand binding assay; conditions: Compound concentration 10.0 uM
# [22] = target: T2, 5-hydroxytryptamine receptor 2C (Homo sapiens) (UniProt P28335); experiment: 5-HT2C (h) Ligand binding assay; conditions: Compound concentration 10.0 uM
# T2 sequence (whole entry): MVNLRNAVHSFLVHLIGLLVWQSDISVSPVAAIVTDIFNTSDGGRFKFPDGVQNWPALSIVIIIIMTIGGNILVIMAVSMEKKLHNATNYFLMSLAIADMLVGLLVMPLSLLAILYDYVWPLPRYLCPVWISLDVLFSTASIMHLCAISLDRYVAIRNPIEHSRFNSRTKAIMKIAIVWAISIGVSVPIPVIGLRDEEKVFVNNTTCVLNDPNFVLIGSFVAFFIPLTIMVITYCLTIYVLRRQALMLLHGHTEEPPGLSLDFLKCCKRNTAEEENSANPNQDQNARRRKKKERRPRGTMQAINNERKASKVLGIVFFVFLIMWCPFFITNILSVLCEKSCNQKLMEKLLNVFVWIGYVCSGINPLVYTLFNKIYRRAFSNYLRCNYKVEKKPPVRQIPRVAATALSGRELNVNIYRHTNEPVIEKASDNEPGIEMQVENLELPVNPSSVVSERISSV
# [23] = target: L-type calcium channel (verapamil site) (Homo sapiens, UniProt O60840+Q01668+Q13698+Q13936); experiment: Ca2+ channel (L verapamil site) Ligand binding assay; assay type: protein assay
# [24] = target: voltage-dependent potassium channel (Homo sapiens, UniProt O43525+O43526+O95259+P16389+P17658+P22001+P22459+P22460+P48547+P51787+P56696+Q03721+Q09470+Q12809+Q14003+Q14721+Q16322+Q6PIU1+Q8NCM2+Q8TAE7+Q8TDN1+Q8TDN2+Q92953+Q96KK3+Q96L42+Q96PR1+Q96RP8+Q9BQ31+Q9H252+Q9H3M0+Q9NR82+Q9NS40+Q9NSA2+Q9NZV8+Q9UIX4+Q9UJ96+Q9UK17+Q9ULD8+Q9ULS6+Q9UQ05); experiment: K+ channel (Volt-dependent) Ligand binding assay; assay type: protein assay; conditions: compound concentration 10 uM
# [25] = target: sodium channel (site 2) (Homo sapiens, UniProt P35498+P35499+Q01118+Q14524+Q15858+Q99250+Q9NY46+Q9UI33+Q9UQD0+Q9Y5Y9); experiment: Na+ channel (site 2) Ligand binding assay; assay type: protein assay
# [26] = target: D(1B) dopamine receptor (Homo sapiens) (UniProt P21918); conditions: Compound concentration 10.0 uM
# [27] = target: GABA-A receptor; anion channel (Rattus norvegicus) (UniProt O09028+P15431+P18506+P18508+P19969+P20236+P23574+P23576+P28471+P28473+P30191+P62813+P63079+P63138+Q91ZM7+Q9ES14); conditions: Compound concentration 10.0 uM
# Sequence of Serine/threonine-protein kinase TAO1 (Homo sapiens) (Q7L7X3 whole entry): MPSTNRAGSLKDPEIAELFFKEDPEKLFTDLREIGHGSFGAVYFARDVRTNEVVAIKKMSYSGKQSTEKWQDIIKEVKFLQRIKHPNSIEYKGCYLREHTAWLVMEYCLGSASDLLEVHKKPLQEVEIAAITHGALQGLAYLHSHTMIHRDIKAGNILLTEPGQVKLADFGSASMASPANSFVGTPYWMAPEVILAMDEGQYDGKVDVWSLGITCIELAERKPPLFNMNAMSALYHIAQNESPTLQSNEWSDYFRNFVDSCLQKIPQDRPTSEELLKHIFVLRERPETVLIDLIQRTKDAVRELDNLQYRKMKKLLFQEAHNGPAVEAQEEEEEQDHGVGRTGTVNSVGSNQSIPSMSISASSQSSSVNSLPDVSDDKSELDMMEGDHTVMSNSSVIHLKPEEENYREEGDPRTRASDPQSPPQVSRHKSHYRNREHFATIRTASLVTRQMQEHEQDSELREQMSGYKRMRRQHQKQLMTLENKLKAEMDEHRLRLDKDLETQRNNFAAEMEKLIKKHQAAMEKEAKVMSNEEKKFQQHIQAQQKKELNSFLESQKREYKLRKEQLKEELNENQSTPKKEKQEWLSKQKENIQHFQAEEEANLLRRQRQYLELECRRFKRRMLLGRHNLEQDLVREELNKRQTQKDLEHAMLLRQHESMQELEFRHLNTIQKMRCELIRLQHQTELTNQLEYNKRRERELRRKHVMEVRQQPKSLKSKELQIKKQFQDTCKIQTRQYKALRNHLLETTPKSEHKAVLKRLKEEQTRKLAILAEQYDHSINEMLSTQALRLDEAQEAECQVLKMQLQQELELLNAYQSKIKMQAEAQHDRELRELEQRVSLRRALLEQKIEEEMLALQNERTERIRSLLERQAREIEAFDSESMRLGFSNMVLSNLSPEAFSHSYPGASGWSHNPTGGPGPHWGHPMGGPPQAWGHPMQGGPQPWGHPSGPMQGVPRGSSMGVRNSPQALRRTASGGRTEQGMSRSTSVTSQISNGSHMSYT
# Sequence of D(1B) dopamine receptor (Homo sapiens) (P21918 whole entry): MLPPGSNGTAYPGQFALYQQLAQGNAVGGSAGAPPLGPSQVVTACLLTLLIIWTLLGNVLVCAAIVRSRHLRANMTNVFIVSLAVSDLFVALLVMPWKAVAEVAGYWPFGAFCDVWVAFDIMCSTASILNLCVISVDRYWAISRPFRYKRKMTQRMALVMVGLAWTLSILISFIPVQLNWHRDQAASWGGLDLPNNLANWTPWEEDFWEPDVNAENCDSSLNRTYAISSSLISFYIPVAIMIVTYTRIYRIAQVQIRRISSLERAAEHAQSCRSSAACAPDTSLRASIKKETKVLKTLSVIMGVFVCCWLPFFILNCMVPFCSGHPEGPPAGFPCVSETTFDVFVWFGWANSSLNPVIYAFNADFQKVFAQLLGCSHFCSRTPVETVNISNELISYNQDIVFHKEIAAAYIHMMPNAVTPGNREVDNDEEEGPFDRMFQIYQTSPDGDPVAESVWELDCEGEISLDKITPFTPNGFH
# Sequence of Cyclin-dependent kinase 4 (Homo sapiens) (P11802 whole entry, canonical isoform): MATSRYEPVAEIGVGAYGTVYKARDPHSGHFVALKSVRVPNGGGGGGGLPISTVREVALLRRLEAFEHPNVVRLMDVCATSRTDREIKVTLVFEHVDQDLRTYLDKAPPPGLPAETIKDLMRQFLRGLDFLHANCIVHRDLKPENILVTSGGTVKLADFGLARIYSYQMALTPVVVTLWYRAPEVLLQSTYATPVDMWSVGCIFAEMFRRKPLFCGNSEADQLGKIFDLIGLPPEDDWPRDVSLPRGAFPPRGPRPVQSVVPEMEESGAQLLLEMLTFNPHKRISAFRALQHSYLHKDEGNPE
# Sequence of Cyclin-dependent kinase 17 (Homo sapiens) (Q00537 whole entry, looked up, canonical isoform): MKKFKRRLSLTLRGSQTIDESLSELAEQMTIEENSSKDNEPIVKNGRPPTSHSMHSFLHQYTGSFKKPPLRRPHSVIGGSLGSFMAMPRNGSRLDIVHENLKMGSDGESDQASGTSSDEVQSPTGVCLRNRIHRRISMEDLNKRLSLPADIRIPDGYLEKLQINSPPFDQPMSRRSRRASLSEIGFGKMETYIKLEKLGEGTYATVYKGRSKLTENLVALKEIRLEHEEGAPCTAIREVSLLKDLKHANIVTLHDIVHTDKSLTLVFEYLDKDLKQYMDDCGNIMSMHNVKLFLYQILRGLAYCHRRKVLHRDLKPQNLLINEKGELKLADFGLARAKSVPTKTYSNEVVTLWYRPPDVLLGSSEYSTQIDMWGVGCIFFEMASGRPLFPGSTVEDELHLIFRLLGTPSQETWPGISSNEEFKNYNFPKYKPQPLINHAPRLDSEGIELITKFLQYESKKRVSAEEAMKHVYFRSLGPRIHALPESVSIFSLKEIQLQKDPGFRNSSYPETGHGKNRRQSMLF
# Sequence of Serine/threonine-protein kinase 16 (Homo sapiens) (O75716 whole entry): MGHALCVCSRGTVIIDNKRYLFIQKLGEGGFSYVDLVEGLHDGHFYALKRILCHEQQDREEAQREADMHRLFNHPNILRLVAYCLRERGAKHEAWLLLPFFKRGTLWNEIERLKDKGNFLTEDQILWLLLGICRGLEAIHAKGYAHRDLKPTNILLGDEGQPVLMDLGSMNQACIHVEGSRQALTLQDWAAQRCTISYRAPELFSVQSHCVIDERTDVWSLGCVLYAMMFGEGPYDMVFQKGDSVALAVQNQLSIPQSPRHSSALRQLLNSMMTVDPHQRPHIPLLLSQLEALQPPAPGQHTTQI
# Sequence of Mitogen-activated protein kinase kinase kinase 15 (Homo sapiens) (Q6ZN16 whole entry): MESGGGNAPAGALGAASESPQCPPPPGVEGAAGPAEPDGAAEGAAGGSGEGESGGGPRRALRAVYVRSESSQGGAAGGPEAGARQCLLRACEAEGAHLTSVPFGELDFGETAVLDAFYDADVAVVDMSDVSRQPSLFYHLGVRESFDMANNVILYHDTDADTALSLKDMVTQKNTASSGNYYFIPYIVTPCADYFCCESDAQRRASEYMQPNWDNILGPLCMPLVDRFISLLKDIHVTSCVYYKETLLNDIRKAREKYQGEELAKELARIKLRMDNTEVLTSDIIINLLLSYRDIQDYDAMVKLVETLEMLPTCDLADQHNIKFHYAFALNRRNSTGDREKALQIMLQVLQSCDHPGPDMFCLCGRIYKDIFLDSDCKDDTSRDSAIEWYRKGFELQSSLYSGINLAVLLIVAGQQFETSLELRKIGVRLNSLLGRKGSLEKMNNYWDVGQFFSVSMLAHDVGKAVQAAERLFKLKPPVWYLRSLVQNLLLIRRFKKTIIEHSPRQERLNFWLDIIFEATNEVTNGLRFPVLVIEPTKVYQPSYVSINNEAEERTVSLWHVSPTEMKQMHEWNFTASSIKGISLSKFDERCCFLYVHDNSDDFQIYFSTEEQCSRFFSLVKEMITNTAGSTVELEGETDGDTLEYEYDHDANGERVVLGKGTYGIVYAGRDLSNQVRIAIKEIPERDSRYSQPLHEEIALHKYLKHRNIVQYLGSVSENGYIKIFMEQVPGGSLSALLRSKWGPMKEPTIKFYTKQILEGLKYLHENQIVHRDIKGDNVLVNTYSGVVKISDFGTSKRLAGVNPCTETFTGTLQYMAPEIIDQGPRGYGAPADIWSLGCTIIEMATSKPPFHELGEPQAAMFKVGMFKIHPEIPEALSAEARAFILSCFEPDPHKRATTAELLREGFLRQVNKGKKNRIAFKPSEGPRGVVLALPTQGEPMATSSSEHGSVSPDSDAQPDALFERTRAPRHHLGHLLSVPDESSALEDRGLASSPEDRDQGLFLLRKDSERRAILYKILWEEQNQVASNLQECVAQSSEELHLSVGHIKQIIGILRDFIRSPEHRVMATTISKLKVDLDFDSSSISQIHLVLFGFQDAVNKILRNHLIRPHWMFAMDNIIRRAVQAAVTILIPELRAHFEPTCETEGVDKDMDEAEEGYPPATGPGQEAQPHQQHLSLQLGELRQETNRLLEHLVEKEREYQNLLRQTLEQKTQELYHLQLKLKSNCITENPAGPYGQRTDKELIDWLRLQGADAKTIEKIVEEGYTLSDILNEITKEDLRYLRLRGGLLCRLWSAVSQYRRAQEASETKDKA
# Sequence of Serine/threonine-protein kinase N1 (Homo sapiens) (Q16512 2-942 limits assumed): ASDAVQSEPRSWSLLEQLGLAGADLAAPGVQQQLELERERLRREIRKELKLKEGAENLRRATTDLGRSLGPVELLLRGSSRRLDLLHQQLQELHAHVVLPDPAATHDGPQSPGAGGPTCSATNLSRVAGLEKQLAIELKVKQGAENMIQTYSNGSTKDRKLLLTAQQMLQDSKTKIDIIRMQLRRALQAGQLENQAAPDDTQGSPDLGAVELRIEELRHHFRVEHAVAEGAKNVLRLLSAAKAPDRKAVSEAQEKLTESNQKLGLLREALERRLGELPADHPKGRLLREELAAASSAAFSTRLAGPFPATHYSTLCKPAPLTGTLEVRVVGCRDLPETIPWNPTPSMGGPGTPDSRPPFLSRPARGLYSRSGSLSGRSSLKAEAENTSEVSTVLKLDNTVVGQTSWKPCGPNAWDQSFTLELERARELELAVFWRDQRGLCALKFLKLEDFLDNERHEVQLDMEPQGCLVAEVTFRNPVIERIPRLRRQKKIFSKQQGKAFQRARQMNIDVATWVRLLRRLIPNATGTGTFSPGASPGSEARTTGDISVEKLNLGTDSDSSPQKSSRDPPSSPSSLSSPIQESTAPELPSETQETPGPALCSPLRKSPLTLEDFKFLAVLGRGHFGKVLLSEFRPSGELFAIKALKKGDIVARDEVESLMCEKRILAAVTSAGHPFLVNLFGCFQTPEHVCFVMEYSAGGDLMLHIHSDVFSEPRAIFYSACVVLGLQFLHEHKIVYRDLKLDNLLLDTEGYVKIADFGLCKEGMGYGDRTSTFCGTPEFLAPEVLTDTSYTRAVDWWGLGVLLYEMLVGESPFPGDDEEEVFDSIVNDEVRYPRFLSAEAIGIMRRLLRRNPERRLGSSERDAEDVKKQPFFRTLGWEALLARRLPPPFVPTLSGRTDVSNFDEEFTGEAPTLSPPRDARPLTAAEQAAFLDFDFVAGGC
# Sequence of Translocator protein (Rattus norvegicus) (P16257 whole entry, looked up): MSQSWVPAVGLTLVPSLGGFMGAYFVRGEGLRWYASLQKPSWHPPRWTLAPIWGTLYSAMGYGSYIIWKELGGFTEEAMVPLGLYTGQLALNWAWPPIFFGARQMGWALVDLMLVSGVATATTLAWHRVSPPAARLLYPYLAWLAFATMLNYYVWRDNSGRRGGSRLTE
smiles,measurement,setting,value
Cn1cncc1[C@@](O)(COc1ccc(C#N)cc1-c1ccc(OC(F)(F)F)cc1)c1ccc(C#N)cc1 [A-108],residual activity,[1],100%
same,residual activity,[2],100%
same,residual activity,[3],100%
same,residual activity,[4],83%
same,residual activity,[5],98%
same,residual activity,[6],95%
same,residual activity,[7],69%
same,residual activity,[8],100%
same,residual activity,[9],100%
same,residual activity,[10],99%
same,residual activity,[11],100%
Cn1cncc1[C@](O)(COc1ccc(C#N)cc1-c1ccc(OC(F)(F)F)cc1)c1ccc(C#N)cc1 [ABT-100],Kd,[12],> 10 µM (not active)
same,inhibition,[13],36%
same,inhibition,[14],< 10%
same,inhibition,[15],36%
same,inhibition,[16],< 10%
same,inhibition,[17],54%
same,inhibition,[18],< 10%
same,inhibition,[19],< 10%
same,inhibition,[20],14%
same,inhibition,[21],15%
same,inhibition,[22],< 10%
same,inhibition at 1 µM,[23]; compound concentration 1 uM,10% (not active)
same,inhibition at 3 µM,[23]; compound concentration 3 uM,37% (not active)
same,inhibition at 10 µM,[23]; compound concentration 10 uM,60%
same,inhibition at 10 µM,[24],< 10% (not active)
same,inhibition at 0.3 µM,[25]; compound concentration 0.3 uM,15% (not active)
same,inhibition at 1 µM,[25]; compound concentration 1 uM,10% (not active)
same,inhibition at 3 µM,[25]; compound concentration 3 uM,22% (not active)
same,inhibition at 10 µM,[25]; compound concentration 10 uM,58%
same,residual activity,[1],100%
same,residual activity,[2],100%
same,residual activity,[3],77%
same,residual activity,[4],90%
same,residual activity,[5],81%
same,residual activity,[6],100%
same,residual activity,[7],100%
same,residual activity,[8],100%
same,residual activity,[9],84%
same,residual activity,[10],99%
same,residual activity,[11],87%
same,inhibition,[26],4.79%
same,inhibition,[27],6.85%
